The text below walks through data of ChEMBL document CHEMBL3301546, “MMV Malaria Box yeast growth screening”.

Common to all, as to type: functional
Test [1] has as its system Saccharomyces cerevisiae. The test can be described thus: (§1) MMV: Growth assays were conducted using the prototrophic S. cerevisiae strain JHY222. Each MMV compound (0.1 mM) was tested in rich media containing dextrose as a carbon source (Yeast Extract, Peptone, Dextrose; YPD). The growth rate in the presence of each MMV compound was calculated as follows: (i) the first 10 OD readings were averaged and subtracted from all OD readings of the corresponding curve to set the baseline of the growth curve to zero, and (ii) the area under the curve (AUC) was then calculated as the sum of all OD readings. […] A relative growth value was calculated as follows: AUC(DRUG) - AUC(DMSO)/AUC(DMSO); where AUC(DMSO) represents growth measured in a DMSO control well that was on the same microtiter plate of the drug-treated culture.

Test [2] concerns Saccharomyces cerevisiae. The description is as §1, with “minimal” for “rich”, “Nitrogen Base,” for “Extract, Peptone,”, “YNBD).” for “YPD).”.
The subject of test [3] is Saccharomyces cerevisiae. The test is described as §1, with “minimal” for “rich”, “ethanol and glycerol” for “dextrose”, “as” for “as a”, “sources” for “source”, “Nitrogen Base, Ethanol, Glycerol; YNBEG).” for “Extract, Peptone, Dextrose; YPD).”.

As for `CCOC(=O)c1c(C)n(-c2ccccc2)c2ccc(OC(=O)c3cc(OC)c(OC)c(OC)c3)cc12`, the results for the “Relative Growth” value in the test with Saccharomyces cerevisiae [1], in the test with Saccharomyces cerevisiae [2] and in the test with Saccharomyces cerevisiae [3] were -0.0253, -0.0133 and -0.2171, respectively.

On to `COc1cc2c(cc1OC)C1=NNC(=O)C1=NC(C)(C)C2`, for which the results for the “Relative Growth” value in the test with Saccharomyces cerevisiae [1], in the test on Saccharomyces cerevisiae [2] and with Saccharomyces cerevisiae [3] were -0.48, -0.0857 and -0.3659, respectively.

Consider `CCOc1cccc2sc(N(Cc3cccnc3)C(=O)C3CCCCC3)nc12`, for which the entries for the “Relative Growth” value in the test with Saccharomyces cerevisiae [1], in the test with Saccharomyces cerevisiae [2] and in the test on Saccharomyces cerevisiae [3] were -0.0327, -0.0544 and -0.3394, respectively.

Take `COc1ccc(C2c3ccc4ccccc4c3Oc3ncn(CCCN(C)C)c(=N)c32)cc1` (stereo unspecified): the entries for the “Relative Growth” value in the test with Saccharomyces cerevisiae [1], in the test on Saccharomyces cerevisiae [2] and with Saccharomyces cerevisiae [3] were -0.012, -0.0503 and -0.0587, respectively.

Turning to `COc1cc(C(=O)Nc2nc3c(cc4c5c(cccc53)CC4)s2)cc(OC)c1OC`, the “Relative Growth” value in the test with Saccharomyces cerevisiae [1] is 0.0021; in the test on Saccharomyces cerevisiae [2] it was -0.1254; in the test with Saccharomyces cerevisiae [3], -0.0592.

As to `CCCc1c(CC)c(=N)c2ccccc2n1C`, the figures for the “Relative Growth” value in the test on Saccharomyces cerevisiae [1], in the test on Saccharomyces cerevisiae [2] and in the test with Saccharomyces cerevisiae [3] were -0.0123, -0.0316 and -0.1464, respectively.

In the case of `O=C(Nc1ccc(Cl)cc1C(=O)Nc1ccncc1)c1ccc(Cl)cc1Cl`, the figures for the “Relative Growth” value in the test on Saccharomyces cerevisiae [1], with Saccharomyces cerevisiae [2] and in the test with Saccharomyces cerevisiae [3] were 0.0512, 0.0109 and -0.1824, respectively.

For the compound `Oc1ccc(Cl)cc1CNc1nc2ccccc2[nH]1`, the figures for the “Relative Growth” value in the test with Saccharomyces cerevisiae [1], in the test with Saccharomyces cerevisiae [2] and in the test with Saccharomyces cerevisiae [3] were -0.0141, -0.0661 and -0.0134, respectively.

For the compound `CC1CCN(Cc2c(O)ccc3cc(-c4nc5ccccc5s4)c(=O)oc23)CC1`, the “Relative Growth” value with Saccharomyces cerevisiae [1] is listed as -0.0068; in the test with Saccharomyces cerevisiae [2], -0.0399; in the test with Saccharomyces cerevisiae [3], -0.3243.

Regarding `Cl.N=c1n(CCN2CCCCC2)c2ccccc2n1CC(O)c1cccc(Br)c1` (stereo unspecified), the “Relative Growth” value in the test on Saccharomyces cerevisiae [1] was -0.0788; with Saccharomyces cerevisiae [2], -0.2329; in the test with Saccharomyces cerevisiae [3], -0.5142.

Turning to `CCN(CC)c1ccc(NC(=O)c2cccs2)cc1`, the “Relative Growth” value is on record as -0.0445 in the test with Saccharomyces cerevisiae [1], -0.1938 with Saccharomyces cerevisiae [2] and -0.4168 with Saccharomyces cerevisiae [3].

Consider `O=C(Nc1cccc(-c2nc3ccccc3[nH]2)c1)c1cccc(NC(=O)c2ccco2)c1`, for which the “Relative Growth” value was -0.1741 with Saccharomyces cerevisiae [1], -0.0641 in the test on Saccharomyces cerevisiae [2] and -0.4658 in the test with Saccharomyces cerevisiae [3].

For the compound `CN(N=O)C1=C(NC2CCCCC2)C(=O)c2ccccc2C1=O`, the “Relative Growth” value is given as -0.04 in the test with Saccharomyces cerevisiae [1], -0.0674 in the test on Saccharomyces cerevisiae [2] and -0.7745 with Saccharomyces cerevisiae [3].

As to `CCOC(=O)c1cnc2c(C)cccc2c1Nc1ccc(C(C)=O)cc1`, the entries for the “Relative Growth” value in the test on Saccharomyces cerevisiae [1], in the test with Saccharomyces cerevisiae [2] and in the test with Saccharomyces cerevisiae [3] were -0.0046, -0.0028 and -0.0453, respectively.

With `COc1ccc(CCN2C(=O)c3[nH]nc(-c4cc(Cl)c(C)cc4O)c3C2c2ccccc2F)cc1` (stereo unspecified), the figures for the “Relative Growth” value in the test on Saccharomyces cerevisiae [1], with Saccharomyces cerevisiae [2] and in the test with Saccharomyces cerevisiae [3] were -0.0103, -0.1352 and -0.023, respectively.

`CCC1(C)CC(CCNCc2ccccc2O)(c2ccc(C)cc2)CCO1` (stereo unspecified): the “Relative Growth” value was 0.0044 with Saccharomyces cerevisiae [1], 0.0584 with Saccharomyces cerevisiae [2] and 0.156 in the test on Saccharomyces cerevisiae [3].

In the case of `COc1ccc(C2N(C)c3ccccc3N2C)cc1`, the “Relative Growth” value in the test on Saccharomyces cerevisiae [1] is listed as -0.0039; with Saccharomyces cerevisiae [2], -0.0194; in the test on Saccharomyces cerevisiae [3] it was 0.0867.

Regarding `COc1ccc(-c2cc3c(SCC(=O)Nc4cc(C(F)(F)F)ccc4Cl)nccn3n2)cc1`, the “Relative Growth” value in the test with Saccharomyces cerevisiae [1] is given as -0.0822; in the test with Saccharomyces cerevisiae [2] it was 0.0829; with Saccharomyces cerevisiae [3], -0.1809.

For the compound `Cc1ccc(CSCc2ccc(C(=O)NC3CC3)o2)cc1`, the figures for the “Relative Growth” value with Saccharomyces cerevisiae [1], in the test on Saccharomyces cerevisiae [2] and in the test on Saccharomyces cerevisiae [3] were 0.0613, -0.0643 and -0.1982, respectively.

As to `COc1ccc(CNC(=O)c2cc3c(=O)n4ccccc4nc3n(CCc3ccccc3)c2=N)cc1`, the “Relative Growth” value in the test with Saccharomyces cerevisiae [1] is -0.0554; with Saccharomyces cerevisiae [2], -0.2162; in the test with Saccharomyces cerevisiae [3], -0.0439.

For `Brc1ccc(Nc2nc3ccccc3nc2Nc2ccc(Br)cc2)cc1`, the entries for the “Relative Growth” value in the test on Saccharomyces cerevisiae [1], in the test on Saccharomyces cerevisiae [2] and in the test on Saccharomyces cerevisiae [3] were -0.9981, -0.0577 and -0.5592, respectively.

With `COc1cc(OC)cc(N2C(=O)N(Cc3ccc(C(C)(C)C)cc3)c3ccccc3S2(=O)=O)c1`, the “Relative Growth” value with Saccharomyces cerevisiae [1] is reported as -0.7249; in the test with Saccharomyces cerevisiae [2] it was 0.0008; in the test on Saccharomyces cerevisiae [3], -0.0128.
